Source: article PMC9437094, “Docking study, molecular dynamic, synthesis, anti-α-glucosidase assessment, and ADMET prediction of new benzimidazole-Schiff base derivatives” (Scientific Reports, 2022)
Like-named read-outs stand apart in the source and are kept apart here.

Assays:
[1] = molecular target: α-glucosidase from Saccharomyces cerevisiae (Saccharomyces cerevisiae, UniProt P53341); test: biochemical; format: biochemical; conditions: for IC50: substrate p-nitrophenyl glucopyranoside, 37 °C
Sequence of α-glucosidase from Saccharomyces cerevisiae (P53341 whole entry): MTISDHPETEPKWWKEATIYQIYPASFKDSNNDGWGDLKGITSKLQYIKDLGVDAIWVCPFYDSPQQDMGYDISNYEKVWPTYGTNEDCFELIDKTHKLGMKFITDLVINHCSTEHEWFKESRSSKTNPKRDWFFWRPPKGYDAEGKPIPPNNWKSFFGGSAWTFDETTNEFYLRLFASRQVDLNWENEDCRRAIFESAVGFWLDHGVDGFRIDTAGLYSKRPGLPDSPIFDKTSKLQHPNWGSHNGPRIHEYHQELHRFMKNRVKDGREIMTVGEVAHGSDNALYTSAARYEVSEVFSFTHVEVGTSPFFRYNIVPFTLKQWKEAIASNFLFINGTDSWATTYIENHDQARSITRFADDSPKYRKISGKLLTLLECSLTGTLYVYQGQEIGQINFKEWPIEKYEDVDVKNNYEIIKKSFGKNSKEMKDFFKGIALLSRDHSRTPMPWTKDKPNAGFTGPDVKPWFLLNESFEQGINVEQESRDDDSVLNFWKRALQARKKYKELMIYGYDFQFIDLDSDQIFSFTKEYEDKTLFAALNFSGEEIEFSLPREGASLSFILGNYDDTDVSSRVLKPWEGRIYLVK
Procedure: Next, absorbance was measured at 405 nm by spectrophotometer (Gen5, Power wave xs2, BioTek, USA), and IC50 value for each tested compound was calculated by taking advantage of the nonlinear regression curve (logit method).

[2] = system: HDF; test: MTT cytotoxicity assay on HDF; format: cell-based; conditions: HDF human normal cell line, at 200 μM
[3] = system: MCF-7; test: MTT cytotoxicity assay on MCF-7; format: cell-based; conditions: MCF-7 human cancer cell line, at 200 μM
[4] = molecular target: α-glucosidase (Saccharomyces cerevisiae, UniProt P53341); test: Enzyme kinetic study (Lineweaver–Burk and secondary plot); format: biochemical
Sequence of α-glucosidase (P53341 whole entry): as above
Procedure: Furthermore, the plot of the Km versus different concentrations of compound 8p gave an estimate of Ki as the inhibition constant (Fig. 2b). Ki value for the latter compound was 60 µM.
A Lineweaver–Burk plot was generated to identify the type of inhibition and the Michaelis–Menten constant (Km) value was determined from plot between reciprocal of the substrate concentration (1/[S]) and reciprocal of enzyme rate (1/V) over various inhibitor concentrations. Experimental inhibitor constant (Ki) value was constructed by secondary plots of the inhibitor concentration [I] versus Km.

| Compound | IC50 ([1]; IC50, yeast α-glucosidase) [µM] | melting point [°C] | other results |
| --- | --- | --- | --- |
| COc1ccc(-c2nc3cc(C(=O)N/N=C/c4cc(OC)c(OC)c(OC)c4)ccc3[nH]2)cc1 [Compound 8d, (E)-2-(4-methoxyphenyl)-N'-(3,4,5-trimethoxybenzylidene)-1H-benzo[d]imidazole-5-carbohydrazide] |  |  | inhibitory activity against α-glucosidase (in words) ([1]; yeast α-glucosidase): inactive |
| COc1ccc(-c2nc3cc(C(=O)N/N=C/c4ccc(F)cc4)ccc3[nH]2)cc1 [Compound 8j, (E)-N'-(4-fluorobenzylidene)-2-(4-methoxyphenyl)-1H-benzo[d]imidazole-5-carbohydrazide] | 84.1 ± 4.5 | > 250 |  |
| COc1ccc(-c2nc3cc(C(=O)N/N=C/c4ccc(C)cc4)ccc3[nH]2)cc1 [Compound 8b, (E)-2-(4-methoxyphenyl)-N'-(4-methylbenzylidene)-1H-benzo[d]imidazole-5-carbohydrazide] | 102 ± 5.6 | > 250 |  |
| COc1ccc(-c2nc3cc(C(=O)N/N=C/c4cccc(Br)c4)ccc3[nH]2)cc1 [Compound 8m, (E)-N'-(3-bromobenzylidene)-2-(4-methoxyphenyl)-1H-benzo[d]imidazole-5-carbohydrazide] | 97 ± 4.4 | > 250 |  |
| COc1ccc(-c2nc3cc(C(=O)N/N=C/c4cccc(Oc5ccccc5)c4)ccc3[nH]2)cc1 [Compound 8e, (E)-2-(4-methoxyphenyl)-N'-(3-phenoxybenzylidene)-1H-benzo[d]imidazole-5-carbohydrazide] | 127 ± 6.5 | > 250 |  |
| COc1ccc(-c2nc3cc(C(=O)N/N=C/c4ccccc4)ccc3[nH]2)cc1 [Compound 8a, (E)-N'-benzylidene-2-(4-methoxyphenyl)-1H-benzo[d]imidazole-5-carbohydrazide] | 70.6 ± 6.8 | > 250 | cytotoxicity (MTT) [2]: non-cytotoxic; cytotoxicity (MTT) [3]: non-cytotoxic |
| COc1ccc(-c2nc3cc(C(=O)N/N=C/c4ccc([N+](=O)[O-])cc4)ccc3[nH]2)cc1 [Compound 8n, (E)-2-(4-methoxyphenyl)-N'-(4-nitrobenzylidene)-1H-benzo[d]imidazole-5-carbohydrazide] | 112 ± 5.7 | > 250 |  |
| COc1ccc(-c2nc3cc(C(=O)N/N=C/c4ccccc4F)ccc3[nH]2)cc1 [Compound 8h, (E)-N'-(2-fluorobenzylidene)-2-(4-methoxyphenyl)-1H-benzo[d]imidazole-5-carbohydrazide] | 69 ± 4 |  | cytotoxicity (MTT) [2]: non-cytotoxic; cytotoxicity (MTT) [3]: non-cytotoxic |
| COc1ccc(-c2nc3cc(C(=O)N/N=C/c4cccs4)ccc3[nH]2)cc1 [Compound 8p, (E)-2-(4-methoxyphenyl)-N'-(thiophen-2-ylmethylene)-1H-benzo[d]imidazole-5-carbohydrazide] | 60.1 ± 3.6 | > 250 | type of inhibition ([4]; Lineweaver–Burk plot): competitive inhibitor; Ki ([4]; secondary plot of Km versus inhibitor concentration): 60 µM; cytotoxicity (MTT) [2]: non-cytotoxic; cytotoxicity (MTT) [3]: non-cytotoxic |
| COc1ccc(-c2nc3cc(C(=O)N/N=C/c4cc5c(cc4[N+](=O)[O-])OCO5)ccc3[nH]2)cc1 [Compound 8o, (E)-2-(4-methoxyphenyl)-N'-((6-nitrobenzo[d][1,3]dioxol-5-yl)methylene)-1H-benzo[d]imidazole-5-carbohydrazide] | 123 ± 6.1 | > 250 |  |
| COc1ccc(-c2nc3cc(C(=O)N/N=C/c4ccccc4Cl)ccc3[nH]2)cc1 [Compound 8k, (E)-N'-(2-chlorobenzylidene)-2-(4-methoxyphenyl)-1H-benzo[d]imidazole-5-carbohydrazide] | 90 ± 7.5 | > 250 |  |
| COc1ccc(-c2nc3cc(C(=O)N/N=C/c4ccc(Cl)cc4)ccc3[nH]2)cc1 [Compound 8l, (E)-N'-(4-chlorobenzylidene)-2-(4-methoxyphenyl)-1H-benzo[d]imidazole-5-carbohydrazide] | 103 ± 5.5 | > 250 |  |
| COc1ccc(/C=N/NC(=O)c2ccc3[nH]c(-c4ccc(OC)cc4)nc3c2)cc1 [Compound 8c, (E)-N'-(4-methoxybenzylidene)-2-(4-methoxyphenyl)-1H-benzo[d]imidazole-5-carbohydrazide] | 110 ± 5.5 | > 250 |  |
| COc1ccc(-c2nc3cc(C(=O)N/N=C/c4cccc(F)c4)ccc3[nH]2)cc1 [Compound 8i, (E)-N'-(3-fluorobenzylidene)-2-(4-methoxyphenyl)-1H-benzo[d]imidazole-5-carbohydrazide] | 88.1 ± 6 | > 250 |  |
| COc1ccc(-c2nc3cc(C(=O)N/N=C/c4cccc(O)c4)ccc3[nH]2)cc1 [Compound 8f, (E)-N'-(3-hydroxybenzylidene)-2-(4-methoxyphenyl)-1H-benzo[d]imidazole-5-carbohydrazide] | 181 ± 8.5 |  |  |
| COc1ccc(-c2nc3cc(C(=O)N/N=C/c4ccc(O)c(OC)c4)ccc3[nH]2)cc1 [Compound 8g, (E)-N'-(4-hydroxy-3-methoxybenzylidene)-2-(4-methoxyphenyl)-1H-benzo[d]imidazole-5-carbohydrazide] |  | > 250 | IC50 ([1]; yeast α-glucosidase, read-out: IC50): 287 ± 7.4 µM |
